Reference: article PMC4454357 (Archives of biochemistry and biophysics, 2015)
Like-named read-outs stand apart in the source and are kept apart here. Each block holds one compound with its values, some of them ahead of it.

Assays:
[1] = target: T1, AhR (Rattus norvegicus, UniProt P41738); assay: AhR-dependent luciferase reporter gene assay, rat hepatoma H4L7.5c2
T1 sequence (P41738 10-853): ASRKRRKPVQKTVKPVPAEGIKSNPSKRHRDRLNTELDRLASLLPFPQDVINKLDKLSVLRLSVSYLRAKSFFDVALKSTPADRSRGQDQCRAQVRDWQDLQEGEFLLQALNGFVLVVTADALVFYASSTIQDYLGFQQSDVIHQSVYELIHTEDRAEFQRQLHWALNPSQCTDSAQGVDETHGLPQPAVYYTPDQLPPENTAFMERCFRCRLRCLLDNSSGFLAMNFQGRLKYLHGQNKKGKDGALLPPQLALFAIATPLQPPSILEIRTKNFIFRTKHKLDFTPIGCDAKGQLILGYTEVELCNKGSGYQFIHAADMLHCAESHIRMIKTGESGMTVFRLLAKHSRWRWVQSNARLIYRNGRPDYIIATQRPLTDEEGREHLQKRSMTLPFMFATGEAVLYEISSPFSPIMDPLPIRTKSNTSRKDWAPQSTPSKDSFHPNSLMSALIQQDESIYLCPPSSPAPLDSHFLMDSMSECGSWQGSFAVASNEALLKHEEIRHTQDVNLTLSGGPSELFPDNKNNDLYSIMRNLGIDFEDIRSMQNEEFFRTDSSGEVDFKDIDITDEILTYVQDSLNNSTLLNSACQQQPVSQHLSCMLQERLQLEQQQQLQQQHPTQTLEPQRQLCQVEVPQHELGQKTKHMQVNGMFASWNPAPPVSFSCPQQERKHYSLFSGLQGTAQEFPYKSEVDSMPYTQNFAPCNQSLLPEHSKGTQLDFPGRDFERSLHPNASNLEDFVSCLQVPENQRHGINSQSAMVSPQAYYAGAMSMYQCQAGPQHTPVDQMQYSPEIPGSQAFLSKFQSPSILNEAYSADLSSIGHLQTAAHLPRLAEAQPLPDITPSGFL

[2] = target: T2, guinea pig hepatic cytosolic AhR (Cavia porcellus, UniProt Q6J287); assay: [3H]TCDD competitive ligand binding, hydroxyapatite binding assay; settings: 2 nM [3H]TCDD, 1 h, room temperature, guinea pig hepatic cytosol
T2 sequence (Q6J287 1-846): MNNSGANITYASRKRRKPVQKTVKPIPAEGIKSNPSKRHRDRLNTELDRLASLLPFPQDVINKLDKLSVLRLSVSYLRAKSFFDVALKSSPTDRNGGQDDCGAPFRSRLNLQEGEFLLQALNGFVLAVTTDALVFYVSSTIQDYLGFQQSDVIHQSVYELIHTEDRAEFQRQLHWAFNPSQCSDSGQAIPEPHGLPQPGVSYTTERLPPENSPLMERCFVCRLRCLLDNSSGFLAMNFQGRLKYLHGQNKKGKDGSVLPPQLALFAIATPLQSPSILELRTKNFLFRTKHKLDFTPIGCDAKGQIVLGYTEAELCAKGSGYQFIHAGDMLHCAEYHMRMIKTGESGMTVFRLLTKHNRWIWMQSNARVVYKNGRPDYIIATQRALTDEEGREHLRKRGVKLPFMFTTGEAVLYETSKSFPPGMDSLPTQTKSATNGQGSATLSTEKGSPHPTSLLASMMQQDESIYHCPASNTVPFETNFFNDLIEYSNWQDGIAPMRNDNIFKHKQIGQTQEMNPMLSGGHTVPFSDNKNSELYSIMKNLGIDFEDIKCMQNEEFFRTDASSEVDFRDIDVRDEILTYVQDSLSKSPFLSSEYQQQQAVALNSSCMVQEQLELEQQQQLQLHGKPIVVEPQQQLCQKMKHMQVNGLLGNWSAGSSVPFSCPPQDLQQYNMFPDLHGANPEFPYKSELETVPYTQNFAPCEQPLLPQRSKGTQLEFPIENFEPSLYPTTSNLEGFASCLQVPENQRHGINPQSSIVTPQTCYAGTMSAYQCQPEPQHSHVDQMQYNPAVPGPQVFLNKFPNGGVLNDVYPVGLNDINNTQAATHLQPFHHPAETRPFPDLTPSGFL

[3] = target: T3, AhR (Homo sapiens, UniProt P35869); assay: AhR-dependent luciferase reporter gene assay, human hepatoma HG2L7.5c1; settings: for difference in relative potency among the cell lines studied: human, mouse, rat and guinea pig cell lines compared
T3 sequence (P35869 11-848): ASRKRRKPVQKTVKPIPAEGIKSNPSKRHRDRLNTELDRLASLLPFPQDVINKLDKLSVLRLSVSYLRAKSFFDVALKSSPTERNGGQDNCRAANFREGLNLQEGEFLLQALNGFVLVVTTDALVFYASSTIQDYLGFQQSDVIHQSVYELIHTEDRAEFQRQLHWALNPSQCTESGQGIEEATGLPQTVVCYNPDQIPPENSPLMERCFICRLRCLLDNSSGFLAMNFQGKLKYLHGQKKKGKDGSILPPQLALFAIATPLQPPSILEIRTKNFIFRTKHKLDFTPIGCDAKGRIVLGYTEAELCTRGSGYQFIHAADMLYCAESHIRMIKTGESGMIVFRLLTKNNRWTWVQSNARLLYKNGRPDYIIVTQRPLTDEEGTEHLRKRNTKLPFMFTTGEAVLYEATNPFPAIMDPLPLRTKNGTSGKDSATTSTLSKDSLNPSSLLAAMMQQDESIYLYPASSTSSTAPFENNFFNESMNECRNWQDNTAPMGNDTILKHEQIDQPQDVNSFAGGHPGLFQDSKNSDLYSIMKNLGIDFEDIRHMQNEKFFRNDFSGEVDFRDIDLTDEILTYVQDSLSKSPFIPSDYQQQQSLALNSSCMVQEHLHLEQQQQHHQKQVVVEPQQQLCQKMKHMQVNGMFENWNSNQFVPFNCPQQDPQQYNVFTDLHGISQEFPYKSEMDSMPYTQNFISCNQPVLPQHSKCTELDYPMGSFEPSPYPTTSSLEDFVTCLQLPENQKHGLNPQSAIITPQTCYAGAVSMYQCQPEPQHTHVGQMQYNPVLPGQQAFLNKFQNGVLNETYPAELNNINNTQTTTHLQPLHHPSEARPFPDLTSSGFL

[4] = target: T1, AhR
[5] = target: T4, AhR (Cavia porcellus, UniProt Q6J287)
T4 sequence (Q6J287 1-846): T2 sequence (Q6J287 1-846)

[6] = target: T3, AhR
[7] = target: T4, AhR; remark: listed apart in the source
[8] = target: AhR (Mus musculus, UniProt P30561); assay: AhR-dependent luciferase reporter gene assay, mouse hepatoma H1L7.5c3; settings: mouse cell line
[9] = tested on: AhR; assay: as above; settings: EC50 mouse versus rat cell lines
[10] = read-out: Relative potency (EC50) as activators of AhR-dependent reporter gene expression, Human cell line HG2L7.5c1, 6 h, mean of triplicate concentration response analysis

AhR (Mus musculus, UniProt P30561), sequence (P30561 10-848): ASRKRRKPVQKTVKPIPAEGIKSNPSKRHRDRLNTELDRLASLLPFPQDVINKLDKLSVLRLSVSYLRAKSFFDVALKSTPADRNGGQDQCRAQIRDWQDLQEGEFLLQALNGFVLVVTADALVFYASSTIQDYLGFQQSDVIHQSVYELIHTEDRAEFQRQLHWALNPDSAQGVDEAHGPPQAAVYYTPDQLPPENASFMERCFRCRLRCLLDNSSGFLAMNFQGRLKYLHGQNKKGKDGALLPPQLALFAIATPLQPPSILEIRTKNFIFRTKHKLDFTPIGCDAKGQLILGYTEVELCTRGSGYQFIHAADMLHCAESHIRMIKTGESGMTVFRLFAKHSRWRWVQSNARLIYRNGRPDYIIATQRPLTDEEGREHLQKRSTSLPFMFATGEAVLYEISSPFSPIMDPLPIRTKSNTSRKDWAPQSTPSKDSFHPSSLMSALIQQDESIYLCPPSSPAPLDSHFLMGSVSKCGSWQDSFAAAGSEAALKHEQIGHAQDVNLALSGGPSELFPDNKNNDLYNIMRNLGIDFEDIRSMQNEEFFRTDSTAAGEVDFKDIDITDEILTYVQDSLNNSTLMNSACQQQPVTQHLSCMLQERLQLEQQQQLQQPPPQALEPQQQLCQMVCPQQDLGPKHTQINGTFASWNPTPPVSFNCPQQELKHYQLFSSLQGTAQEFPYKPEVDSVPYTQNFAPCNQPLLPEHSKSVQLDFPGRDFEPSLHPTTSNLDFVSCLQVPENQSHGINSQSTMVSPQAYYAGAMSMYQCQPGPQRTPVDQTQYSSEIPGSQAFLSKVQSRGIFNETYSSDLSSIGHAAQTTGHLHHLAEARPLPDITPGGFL

Compound: pityriazepin
- displacement of [3H]TCDD [2]: displaced [^3H]TCDD from guinea pig hepatic cytosol in a concentration-dependent manner
- difference in relative potency among the cell lines studied [3]: lowest degree of difference
- EC50 [3, 10]: 5 nM

Compound: O=Cc1c(Cc2c[nH]c3ccccc23)[nH]c2ccccc12 [Malassezin, malassezin]
- EC50 [4]: 56 nM
- EC50 [5]: 276 nM
- relative inducing potency difference between the human and mouse cell lines ([3]; EC50 human versus mouse hepatoma cells): ~ 26 fold
- EC50 [6]: 11.1 nM

Compound: O=C1c2ccccc2-n2c1nc1ccccc1c2=O [Tryptanthrin, tryptanthrin]
- EC50 [7]: 181 nM
- EC50 [1]: 946 nM

Compound: O=C(c1c[nH]c2ccccc12)c1nccc2c1[nH]c1ccccc12 [Pityriacitrin, pityriacitrin]
- EC50 [4]: 4.3 nM
- EC50 [5]: 4.3 nM
- difference in relative potency among the cell lines studied [3]: lowest degree of difference
- EC50 [6]: 4.9 nM

Compound: indolo[3,2-b]carbazole [ICZ]
- EC50 [3, 10]: 0.6 nM
- EC50 [8]: 0.009 nM
- difference in EC50 between the mouse and rat cell lines [9]: ~ 109 fold

Compound: Clc1cc2c(cc1Cl)Oc1cc(Cl)c(Cl)cc1O2 [TCDD, 2,3,7,8-tetrachlorodibenzo-p-dioxin, reference compound]
- EC50 [3]: 0.53 nM
- EC50 [7]: 0.1 nM
- EC50 [1]: 0.1 nM

The remaining lines, values ahead:

- EC50 [1]: 0.078 nM
Compound: O=Cc1c2[nH]c3ccccc3c2cc2[nH]c3ccccc3c12 [FICZ, 6-formyl-indolo[3,2-b]carbazole]

- EC50 [7]: 0.95 nM
- EC50 [1]: 0.94 nM
Compound: O=C1Nc2ccccc2/C1=C1/Nc2ccccc2C1=O [Indirubin, indirubin]
